Drawing on patent US11358952B2, “Substituted 4-aminoisoindoline-1,3-dione compounds, compositions thereof, and methods of treatment therewith” (Celgene Corporation, priority 2018, dated 2022), this text covers IC50 for 30 compounds.

Each structure is given as a SMILES string.

This test has as its system SU-DHL-4 cell line. Kind of test: SU-DHL-4 cell proliferation assay (Cell Titer-Glo viability). The note with it: Homo sapiens; cell viability IC50 activity level, DLBCL cell line SU-DHL-4, 120 hours post-treatment; read-out: SU-DHL-4 Act. It is filed as cell-based. The gist of the method: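 SU-DHL-4 cells (500/well, RPMI-1640 + 10% FBS) exposed to 20-point compound dilutions (0.5 nM–10 μM, 0.1% DMSO) for 120 h at 37°C, 5% CO2. Viability measured by Cell Titer-Glo luminescence at t0 and at 120 h. IC50 is the concentration giving 50% of DMSO control, from a four-parameter logistic fit.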
For orientation: Cellular ATP, detected with luciferase, serves as a proxy for viable cell number.
Consider `O=C1CCC(N2C(=O)c3cccc(NCc4ccc(CN5CC6(CCC6)C5)cc4F)c3C2=O)C(=O)N1` (stereo not drawn) [Cpd 137, 4-(4-(2-azaspiro[3.3]heptan-2-ylmethyl)-2-fluorobenzylamino)-2-(2,6-dioxopiperidin-3-yl)isoindoline-1,3-dione], for which the IC50 is below 200 nM.

As for `C[C@@H]1CN(c2ccc(Cl)cc2)CCN1Cc1ccc(CNc2cccc3c2C(=O)N(C2CCC(=O)NC2=O)C3=O)cc1` (stereo partly drawn) [Cpd 33, 4-(4-(((R)-4-(4-chlorophenyl)-2-methylpiperazin-1-yl)methyl)benzylamino)-2-(2,6-dioxopiperidin-3-yl)isoindoline-1,3-dione], the IC50 lay in the range of 200 to 500 nM.

Regarding `CC(C)COC1CCN(Cc2ccc(CNc3cccc4c3C(=O)N(C3CCC(=O)NC3=O)C4=O)cc2)CC1` (stereo not drawn) [Cpd 125, 2-(2,6-dioxopiperidin-3-yl)-4-(4-((4-isobutoxypiperidin-1-yl)methyl)benzylamino)isoindoilne-1,3-dione], the IC50 was in the range of 200 to 500 nM.

For `O=C1CCC(N2C(=O)c3cccc(NCc4ccc(CN5CC6(CCC6)C5)c(F)c4)c3C2=O)C(=O)N1` (stereo not drawn) [Cpd 162, 4-(4-(2-azaspiro[3.3]heptan-2-ylmethyl)-3-fluorobenzylamino)-2-(2,6-dioxopiperidin-3-yl)isoindoline-1,3-dione], the IC50 fell in the range of 200 to 500 nM.

`Cc1cc(CNc2cccc3c2C(=O)N(C2CCC(=O)NC2=O)C3=O)ccc1CN1CCC(C(F)(F)F)CC1` (stereo not drawn) [Cpd 45, 2-(2,6-dioxopiperidin-3-yl)-4-(3-methyl-4-((4-(trifluoromethyl)piperidin-1-yl)methyl)benzylamino)isoindoline-1,3-dione]: the IC50 was below 200 nM.

On to `O=C1CCC(N2C(=O)c3cccc(NCc4ccc(CN5CCC(c6ccccn6)CC5)cc4F)c3C2=O)C(=O)N1` (stereo not drawn) [Cpd 166], for which the IC50 was below 200 nM.

In the case of `CC1(C)CN(c2ccc(C#N)cn2)CCN1Cc1ccc(CNc2cccc3c2C(=O)N(C2CCC(=O)NC2=O)C3=O)cc1` (stereo not drawn) [Cpd 84, 6-(4-(4-((2-(2,6-dioxopiperidin-3-yl)-1,3-dioxoisoindolin-4-ylamino)methyl)benzyl)-3,3-dimethylpiperazin-1-yl)nicotinonitrile], the IC50 was below 200 nM.

Regarding `CCS(=O)(=O)N1CCN(Cc2ccc(CNc3cccc4c3C(=O)N(C3CCC(=O)NC3=O)C4=O)c(F)c2)CC1` (stereo not drawn) [Cpd 160, 2-(2,6-dioxopiperidin-3-yl)-4-(4-((4-(ethylsulfonyl)piperazin-1-yl)methyl)-2-fluorobenzylamino)isoindoline-1,3-dione], the IC50 is below 200 nM.

For the compound `CN(C)C(=O)c1ccc(N2CCN(Cc3ccc(CNc4cccc5c4C(=O)N(C4CCC(=O)NC4=O)C5=O)c(F)c3)CC2)cn1` (stereo not drawn) [Cpd 140, 5-(4-(4-((2-(2,6-dioxopiperidin-3-yl)-1,3-dioxoisoindolin-4-ylamino)methyl)-3-fluorobenzyl)piperazin-1-yl)-N,N-dimethylpicolinamide], the IC50 was in the range of 200 to 500 nM.

With `NC(=O)c1cc(N2CCN(Cc3ccc(CNc4cccc5c4C(=O)N(C4CCC(=O)NC4=O)C5=O)c(F)c3)CC2)ccn1` (stereo not drawn) [Cpd 192, 4-(4-(4-((2-(2,6-dioxopiperidin-3-yl)-1,3-dioxoisoindolin-4-ylamino)methyl)-3-fluorobenzyl)piperazin-1-yl)picolinamide], the IC50 is below 200 nM.

For `O=C1CCC(N2C(=O)c3cccc(NCc4ccc(CN5CCN(C(=O)c6ccccc6F)CC5)cc4F)c3C2=O)C(=O)N1` (stereo not drawn) [Cpd 188, 2-(2,6-dioxopiperidin-3-yl)-4-(2-fluoro-4-((4-(2-fluorobenzoyl)piperazin-1-yl)methyl)benzylamino)isoindoline-1,3-dione], the IC50 lay within 751 to 1000 nM.

Turning to `Cc1cc(CNc2cccc3c2C(=O)N(C2CCC(=O)NC2=O)C3=O)ccc1CN1CC(N2CCCC2)C1` (stereo not drawn) [Cpd 217, 2-(2,6-dioxopiperidin-3-yl)-4-(3-methyl-4-((3-(pyrrolidin-1-yl)azetidin-1-yl)methyl)benzylamino)isoindoline-1,3-dione], the IC50 is below 200 nM.

As for `Cn1cc(N2CCN(Cc3ccc(CNc4cccc5c4C(=O)N(C4CCC(=O)NC4=O)C5=O)cc3)CC2)cn1` (stereo not drawn) [Cpd 195, 2-(2,6-dioxopiperidin-3-yl)-4-(4-((4-(1-methyl-1H-pyrazol-4-yl)piperazin-1-yl)methyl)benzylamino)isoindoline-1,3-dione], the IC50 is 200 to 500 nM.

For the compound `O=C1CCC(N2C(=O)c3cccc(NCc4ccc(CN5CCN(c6ccc(Cl)cc6Cl)CC5)cc4)c3C2=O)C(=O)N1` (stereo not drawn) [Cpd 4, 4-(4-((4-(2,4-dichlorophenyl)piperazin-1-yl)methyl)benzylamino)-2-(2,6-dioxopiperidin-3-yl)isoindoline-1,3-dione], the IC50 fell in the range of 501 to 750 nM.

Turning to `N#Cc1ccc(N2CCN(Cc3ccc(CNc4cccc5c4C(=O)N(C4CCC(=O)NC4=O)C5=O)cc3)CC2)nc1` (stereo not drawn) [Cpd 29, 6-(4-(4-((2-(2,6-dioxopiperidin-3-yl)-1,3-dioxoisoindolin-4-ylamino)methyl)benzyl)piperazin-1-yl)nicotinonitrile], the IC50 was 200 to 500 nM.

With `O=C1CCC(N2C(=O)c3cccc(NCc4ccc(CN5CC6(CCC6)C5)cc4)c3C2=O)C(=O)N1` (stereo not drawn) [Cpd 115, 4-(4-(2-azaspiro[3.3]heptan-2-ylmethyl)benzylamino)-2-(2,6-dioxopiperidin-3-yl)isoindoline-1,3-dione], the IC50 is below 200 nM.

For the compound `Cc1cc(CNc2cccc3c2C(=O)N(C2CCC(=O)NC2=O)C3=O)ccc1CN1CCC(OC(C)C)CC1` (stereo not drawn) [Cpd 78, 2-(2,6-dioxopiperidin-3-yl)-4-(4-((4-isopropoxypiperidin-1-yl)methyl)-3-methylbenzylamino)isoindoline-1,3-dione], the IC50 was below 200 nM.

As for `Cc1cc(CNc2cccc3c2C(=O)N(C2CCC(=O)NC2=O)C3=O)ccc1CN1CCN(c2ccc(C(N)=O)nc2)CC1` (stereo not drawn) [Cpd 49, 5-(4-(4-((2-(2,6-dioxopiperidin-3-yl)-1,3-dioxoisoindolin-4-ylamino)methyl)-2-methylbenzyl)piperazin-1-yl)picolinamide], the IC50 is below 200 nM.

For the compound `CCc1nsc(N2CCN(Cc3ccc(CNc4cccc5c4C(=O)N(C4CCC(=O)NC4=O)C5=O)cc3)CC2)n1` (stereo not drawn) [Cpd 197, 2-(2,6-dioxopiperidin-3-yl)-4-(4-((4-(3-ethyl-1,2,4-thiadiazol-5-yl)piperazin-1-yl)methyl)benzylamino)isoindoline-1,3-dione], the IC50 is below 200 nM.

Consider `O=C1CCC(N2C(=O)c3cccc(NCc4ccc(CN5CCN(c6ccc(C(F)(F)F)cn6)CC5)cc4)c3C2=O)C(=O)N1` (stereo not drawn) [Cpd 119, 2-(2,6-dioxopiperidin-3-yl)-4-(4-((4-(5-(trifluoromethyl)pyridin-2-yl)piperazin-1-yl)methyl)benzylamino)isoindoline-1,3-dione], for which the IC50 is 200 to 500 nM.

`O=C1CCC(N2C(=O)c3cccc(NCc4ccc(CN5CC6(CCOCC6)C5)cc4)c3C2=O)C(=O)N1` (stereo not drawn) [Cpd 219, 4-(4-(7-oxa-2-azaspiro[3.5]nonan-2-ylmethyl)benzylamino)-2-(2,6-dioxopiperidin-3-yl)isoindoline-1,3-dione]: the IC50 is below 200 nM.

As for `Cc1cc(CNc2cccc3c2C(=O)N(C2CCC(=O)NC2=O)C3=O)ccc1CN1CC(c2ccccn2)C1` (stereo not drawn) [Cpd 81, 2-(2,6-dioxopiperidin-3-yl)-4-(3-methyl-4-((3-(pyridin-2-yl)azetidin-1-yl)methyl)benzylamino)isoindoline-1,3-dione], the IC50 was 200 to 500 nM.

For `N#Cc1cccc(C2CN(Cc3ccc(CNc4cccc5c4C(=O)N(C4CCC(=O)NC4=O)C5=O)cc3)C2)c1` (stereo not drawn) [Cpd 15, 3-(1-(4-((2-(2,6-dioxopiperidin-3-yl)-1,3-dioxoisoindolin-4-ylamino)methyl)benzyl)azetidin-3-yl)benzonitrile], the IC50 was 751 to 1000 nM.

As to `Cc1cc(CNc2cccc3c2C(=O)N(C2CCC(=O)NC2=O)C3=O)ccc1CN1CCC2(CC1)CC(F)(F)C2` (stereo not drawn) [Cpd 47, 4-(4-((2,2-difluoro-7-azaspiro[3.5]nonan-7-yl)methyl)-3-methylbenzylamino)-2-(2,6-dioxopiperidin-3-yl)isoindoline-1,3-dione], the IC50 is below 200 nM.

Take `O=C1CCC(N2C(=O)c3cccc(NCc4ccc(CN5C[C@@H]6CC(c7ccc(F)cc7)=C[C@@H]6C5)cc4)c3C2=O)C(=O)N1` (stereo in doubt) [Cpd 59, 2-(2,6-dioxopiperidin-3-yl)-4-(4-(((3aS,6aR)-5-(4-fluorophenyl)-3,3a,6,6a-tetrahydrocyclopenta[c]pyrrol-2(1H)-yl)methyl)benzylamino)isoindoline-1,3-dione]: the IC50 is below 200 nM.

In the case of `Cc1cc(CNc2cccc3c2C(=O)N(C2CCC(=O)NC2=O)C3=O)ccc1CN1CC2(COC2)C1` (stereo not drawn) [Cpd 228, 4-(4-(2-oxa-6-aaspiro[3.3]heptan-6-ylmethyl)-3-methylbenzylamino)-2-(2,6-dioxopiperidin-3-yl)isoindoline-1,3-dione], the IC50 was 200 to 500 nM.

Turning to `O=C1CCC(N2C(=O)c3cccc(NCc4ccc(CN5CCC6(CCOCC6)CC5)cc4F)c3C2=O)C(=O)N1` (stereo not drawn) [Cpd 234, 4-(4-(3-oxa-9-azaspiro[5.5]undecan-9-ylmethyl)-2-fluorobenzylamino)-2-(2,6-dioxopiperidin-3-yl)isoindoline-1,3-dione], the IC50 was below 200 nM.

For the compound `CC(C)(C)OC1CCN(Cc2ccc(CNc3cccc4c3C(=O)N(C3CCC(=O)NC3=O)C4=O)cc2)CC1` (stereo not drawn) [Cpd 38, 4-(4-((4-tert-butoxypiperidin-1-yl)methyl)benzylamino)-2-(2,6-dioxopiperidin-3-yl)isoindoline-1,3-dione], the IC50 was below 200 nM.

On to `Cc1nnc(N2CCN(Cc3ccc(CNc4cccc5c4C(=O)N(C4CCC(=O)NC4=O)C5=O)cc3)CC2)s1` (stereo not drawn) [Cpd 193, 2-(2,6-dioxopiperidin-3-yl)-4-(4-((4-(5-methyl-1,3,4-thiadiazol-2-yl)piperazin-1-yl)methyl)benzylamino)isoindoline-1,3-dione], for which the IC50 was in the range of 200 to 500 nM.

As for `CC(C)S(=O)(=O)N1CCN(Cc2ccc(CNc3cccc4c3C(=O)N(C3CCC(=O)NC3=O)C4=O)c(F)c2)CC1` (stereo not drawn) [Cpd 175, 2-(2,6-dioxopiperidin-3-yl)-4-(2-fluoro-4-((4-(isopropylsulfonyl)piperazin-1-yl)methyl)benzylamino)isoindoline-1,3-dione], the IC50 is below 200 nM.
